Measured values from patent US9618507B2, “Methods of treating rheumatoid arthritis” (Betanien Hospital, priority 2014, dated 2017).
Where a SMILES comes first, the peptide text is derived from it. [ ]: non-standard residue; d: D form. dPhe(4-Cl) = N[C@H](Cc1ccc(Cl)cc1)C(=O)O; d2Nal = N[C@H](Cc1ccc2ccccc2c1)C(=O)O; dCit = NC(=O)NCCC[C@@H](N)C(=O)O; d3Pal = N[C@H](Cc1cccnc1)C(=O)O

System: LH, FSH, cortisol
Experiment: Example 1: serum hormone assays (LH, FSH, cortisol)
Assay type: in vivo, human
Procedure: Ethical committee approval was obtained. […] Safety and efficacy visits, with blood sampling, were between 0730 and 0930 h on days 1 (baseline), 2, 3, 4, 5 (visit 5a), 10, and 15. There was an additional visit (visit 5b) between 1930 and 2130 h when maximum GnRH suppression was anticipated.
Non-competitive immunofluorometric assays were used for the quantitative determination of serum LH and FSH (Dissociation Enhanced Lanthanide Fluoroimmunoassay [DELFIA] kit, Turku, Finland). A competitive immunofluorometric assay was used for the determination of serum oestradiol (DELFIA kit, Turku, Finland). A competitive radioimmunoassay was used for the quantitative determination of serum testosterone (Orion Diagnostica. Espoo, Finland). A competitive Iuminoimmunoassay was used for the quantitative determination of serum cortisol (Immulite 2000, California, USA).

SMILES: CC(=O)N[C@H](Cc1ccc2ccccc2c1)C(=O)N[C@H](Cc1ccc(Cl)cc1)C(=O)N[C@H](Cc1cccnc1)C(=O)N[C@@H](CO)C(=O)N[C@@H](Cc1ccc(O)cc1)C(=O)N[C@H](CCCNC(N)=O)C(=O)N[C@@H](CC(C)C)C(=O)N[C@@H](CCCNC(=N)N)C(=O)N1CCC[C@H]1C(=O)N[C@H](C)C(N)=O [cetrorelix] (Ac-[d2Nal][dPhe(4-Cl)][d3Pal]SY[dCit]LRP[dA]-NH2)
- LH and FSH levels (all patients allocated to cetrorelix, onset): reduced as early as day 2
- Cortisol changes between groups (all patients, by day 5, p 0.80): not significantly different between groups
